Data reported in ChEMBL document CHEMBL1201862, “PubChem BioAssay data set” (2004).
Activity calls are given as the source filed them.

Experiments:
[1] = inhibitors of intracellular T. cruzi replication, confirmation, NIH3T3 host cells, beta-gal luminescence (AID 2044); format: functional, cell-based;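 further: intracellular parasites grown in NIH/3T3 mouse fibroblasts as host cells; luminescent beta-galactosidase reporter signal from transgenic T. cruzi replicating inside host cells; inhibitors lower the luminescence signal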
[2] = target: Glucose-6-phosphate 1-dehydrogenase (Homo sapiens, UniProt P11413); test: human G6PD enzyme inhibitors, dose response, selectivity assay for P. falciparum G6PD inhibitor project, biochemical, fluorescence (AID 504792); format: functional
Chain of Glucose-6-phosphate 1-dehydrogenase (P11413 whole entry): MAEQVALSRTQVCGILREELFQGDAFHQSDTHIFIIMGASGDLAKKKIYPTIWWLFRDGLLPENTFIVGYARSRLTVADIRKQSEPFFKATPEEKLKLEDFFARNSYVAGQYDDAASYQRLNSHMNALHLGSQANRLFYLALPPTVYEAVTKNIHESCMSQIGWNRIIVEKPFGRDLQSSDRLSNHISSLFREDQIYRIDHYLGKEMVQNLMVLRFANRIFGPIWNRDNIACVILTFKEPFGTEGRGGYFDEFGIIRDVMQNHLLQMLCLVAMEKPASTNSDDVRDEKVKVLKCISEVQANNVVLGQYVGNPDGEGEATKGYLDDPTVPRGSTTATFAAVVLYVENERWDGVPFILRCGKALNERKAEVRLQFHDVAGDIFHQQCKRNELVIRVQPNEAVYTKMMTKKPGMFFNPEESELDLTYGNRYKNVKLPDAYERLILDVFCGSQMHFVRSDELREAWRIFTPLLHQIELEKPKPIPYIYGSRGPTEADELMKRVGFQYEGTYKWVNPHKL

Hexokinase HKDC1 = target: T1, Hexokinase HKDC1 (Homo sapiens, UniProt Q2TB90); test: HKDC1 hexokinase activators, dose response, biochemical, W721R variant (AID 504730); format: functional
T1 sequence (Q2TB90 whole entry): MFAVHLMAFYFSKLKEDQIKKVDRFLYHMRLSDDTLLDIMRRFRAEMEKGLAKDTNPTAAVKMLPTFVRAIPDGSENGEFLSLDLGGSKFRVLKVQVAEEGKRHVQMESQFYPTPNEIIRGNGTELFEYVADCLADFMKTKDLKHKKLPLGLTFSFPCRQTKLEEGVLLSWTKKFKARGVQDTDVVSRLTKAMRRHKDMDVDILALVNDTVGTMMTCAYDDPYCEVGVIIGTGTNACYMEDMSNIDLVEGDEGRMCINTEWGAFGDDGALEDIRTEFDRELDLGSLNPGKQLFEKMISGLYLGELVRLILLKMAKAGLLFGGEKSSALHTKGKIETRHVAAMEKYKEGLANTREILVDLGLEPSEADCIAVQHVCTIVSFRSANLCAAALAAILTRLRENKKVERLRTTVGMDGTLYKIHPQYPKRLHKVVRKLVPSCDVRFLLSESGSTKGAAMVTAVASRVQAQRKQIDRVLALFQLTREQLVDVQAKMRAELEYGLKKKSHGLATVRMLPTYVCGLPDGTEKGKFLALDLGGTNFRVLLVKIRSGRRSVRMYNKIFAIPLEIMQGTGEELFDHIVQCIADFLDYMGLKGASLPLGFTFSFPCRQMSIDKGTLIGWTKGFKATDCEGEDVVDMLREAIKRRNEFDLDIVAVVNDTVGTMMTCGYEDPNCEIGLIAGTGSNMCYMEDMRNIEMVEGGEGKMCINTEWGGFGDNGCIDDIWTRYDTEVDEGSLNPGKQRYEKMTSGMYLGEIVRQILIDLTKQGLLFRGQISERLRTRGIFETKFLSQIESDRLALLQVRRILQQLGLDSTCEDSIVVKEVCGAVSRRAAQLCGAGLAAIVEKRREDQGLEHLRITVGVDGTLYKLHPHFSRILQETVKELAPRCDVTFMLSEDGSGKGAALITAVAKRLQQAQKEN

[3] = target: Heat shock protein HSP 90-alpha (Homo sapiens, UniProt P07900); format: functional, organism-based
[4] = target: T2, Apoptotic protease-activating factor 1 (Homo sapiens, UniProt O14727); format: functional
T2 sequence (O14727 whole entry): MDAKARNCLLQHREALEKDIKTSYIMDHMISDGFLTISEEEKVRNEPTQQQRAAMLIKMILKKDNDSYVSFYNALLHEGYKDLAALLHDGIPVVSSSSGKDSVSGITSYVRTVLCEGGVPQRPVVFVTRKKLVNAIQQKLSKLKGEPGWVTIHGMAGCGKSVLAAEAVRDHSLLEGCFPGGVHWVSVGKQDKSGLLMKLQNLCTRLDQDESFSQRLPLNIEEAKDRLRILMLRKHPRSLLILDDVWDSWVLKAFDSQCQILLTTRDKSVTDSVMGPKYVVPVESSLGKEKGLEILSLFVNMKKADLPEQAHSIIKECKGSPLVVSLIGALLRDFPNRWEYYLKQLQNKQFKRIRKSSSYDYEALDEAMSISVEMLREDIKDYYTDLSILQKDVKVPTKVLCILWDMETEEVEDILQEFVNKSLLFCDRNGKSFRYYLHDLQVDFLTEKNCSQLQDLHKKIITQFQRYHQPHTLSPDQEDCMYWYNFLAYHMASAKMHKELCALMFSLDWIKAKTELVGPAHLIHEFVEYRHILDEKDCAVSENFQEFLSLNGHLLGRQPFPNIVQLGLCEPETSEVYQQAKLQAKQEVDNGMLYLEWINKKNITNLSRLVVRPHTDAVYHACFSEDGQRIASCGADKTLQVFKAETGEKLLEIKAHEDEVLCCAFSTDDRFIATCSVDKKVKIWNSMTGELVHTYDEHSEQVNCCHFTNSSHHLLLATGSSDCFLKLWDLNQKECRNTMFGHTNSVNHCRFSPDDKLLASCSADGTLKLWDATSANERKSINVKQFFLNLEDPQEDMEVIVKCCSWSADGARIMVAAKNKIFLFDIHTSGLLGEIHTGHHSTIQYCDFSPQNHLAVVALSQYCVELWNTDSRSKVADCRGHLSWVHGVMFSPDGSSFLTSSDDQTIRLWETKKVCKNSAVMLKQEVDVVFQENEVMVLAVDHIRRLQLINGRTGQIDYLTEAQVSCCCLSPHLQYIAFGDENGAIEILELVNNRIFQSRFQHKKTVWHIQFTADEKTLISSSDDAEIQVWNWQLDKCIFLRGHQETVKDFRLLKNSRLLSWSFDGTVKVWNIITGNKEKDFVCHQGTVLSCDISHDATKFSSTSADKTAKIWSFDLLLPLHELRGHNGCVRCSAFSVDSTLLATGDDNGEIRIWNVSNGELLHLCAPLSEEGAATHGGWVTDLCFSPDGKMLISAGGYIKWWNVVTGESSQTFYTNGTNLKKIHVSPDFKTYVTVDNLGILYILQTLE

For `Clc1ccc(/N=c2\ssnc2Cl)nc1`, the EC50 [1] was 1.45 µM (active), the IC50 [2] was > 80 µM (inactive) and the EC50 (Hexokinase HKDC1) was 50.3 µM (inactive). The AC50 [3] was 1.73 µM (active) and the IC50 [4] was 14.3 µM (active).
